Test results published in patent US20010034367A1, “Compositions and methods for the treatment of cystic fibrosis” (priority 1998, published 2001).
Entries after “also recorded” stand apart in the source; their conditions may differ. Where two headings read alike, the source gives them in different places.

Experiments:
ΔF508-CFTR [1] = biological target: T1, ΔF508-CFTR (Homo sapiens, UniProt P13569, DEL508-508); conditions: 0.1 and 2 mM; primary nasal polyp epithelia or IB3-1 cells; up to 7 days in culture; cited from earlier work
T1 construct: primary cultures of nasal polyp epithelia from CF patients (ΔF508 homozygous or heterozygous), or the CF bronchial epithelial cell line IB3-1; endogenous in cells; host or cells: primary nasal polyp epithelia from CF patients; IB3-1 CF bronchial epithelial cell line
T1 sequence (P13569 with tags, fused parts or gaps DEL508-508): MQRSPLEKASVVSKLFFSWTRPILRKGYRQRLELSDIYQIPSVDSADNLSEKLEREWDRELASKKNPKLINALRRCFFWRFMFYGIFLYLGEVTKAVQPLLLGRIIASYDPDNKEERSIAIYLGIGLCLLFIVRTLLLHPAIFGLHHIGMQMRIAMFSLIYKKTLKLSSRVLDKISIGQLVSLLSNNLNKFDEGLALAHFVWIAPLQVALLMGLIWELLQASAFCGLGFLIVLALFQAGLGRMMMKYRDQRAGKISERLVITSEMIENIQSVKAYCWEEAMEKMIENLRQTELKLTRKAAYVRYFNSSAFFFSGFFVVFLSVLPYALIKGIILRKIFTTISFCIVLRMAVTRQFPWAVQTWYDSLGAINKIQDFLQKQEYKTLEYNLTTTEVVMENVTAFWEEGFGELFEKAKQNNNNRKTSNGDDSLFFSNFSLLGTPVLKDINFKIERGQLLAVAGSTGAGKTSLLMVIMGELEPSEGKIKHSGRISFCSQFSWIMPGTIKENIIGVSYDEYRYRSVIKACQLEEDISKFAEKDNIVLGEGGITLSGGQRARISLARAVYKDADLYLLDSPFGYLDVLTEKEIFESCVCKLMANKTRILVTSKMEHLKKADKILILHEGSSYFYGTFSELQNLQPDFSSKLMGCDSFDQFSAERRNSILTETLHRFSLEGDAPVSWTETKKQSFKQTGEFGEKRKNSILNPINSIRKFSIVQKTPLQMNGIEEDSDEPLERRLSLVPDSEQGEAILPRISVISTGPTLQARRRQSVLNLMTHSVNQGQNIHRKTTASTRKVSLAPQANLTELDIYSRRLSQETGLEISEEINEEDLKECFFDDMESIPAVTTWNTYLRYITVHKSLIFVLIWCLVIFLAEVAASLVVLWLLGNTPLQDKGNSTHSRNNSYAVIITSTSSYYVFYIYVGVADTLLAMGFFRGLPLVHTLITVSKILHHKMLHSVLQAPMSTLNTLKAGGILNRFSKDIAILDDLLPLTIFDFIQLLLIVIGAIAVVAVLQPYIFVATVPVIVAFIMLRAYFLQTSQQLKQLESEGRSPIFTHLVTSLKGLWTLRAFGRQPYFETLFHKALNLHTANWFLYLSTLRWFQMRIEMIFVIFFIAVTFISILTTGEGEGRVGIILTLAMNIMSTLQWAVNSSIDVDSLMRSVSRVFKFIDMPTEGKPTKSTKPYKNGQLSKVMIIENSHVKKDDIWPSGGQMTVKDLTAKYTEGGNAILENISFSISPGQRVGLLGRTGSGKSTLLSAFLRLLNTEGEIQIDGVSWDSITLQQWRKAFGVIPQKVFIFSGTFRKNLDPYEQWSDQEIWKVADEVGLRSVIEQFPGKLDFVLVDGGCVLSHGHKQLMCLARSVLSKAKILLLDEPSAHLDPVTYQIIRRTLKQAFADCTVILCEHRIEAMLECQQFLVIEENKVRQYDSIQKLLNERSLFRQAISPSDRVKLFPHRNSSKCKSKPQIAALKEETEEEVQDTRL

CFTR gene = conditions: cited from earlier work
[2] = in vivo; cited from earlier work
ΔF508-CFTR [3] = biological target: T1, ΔF508-CFTR; conditions: IB3-1 cells; 2.5 mM; cited from earlier work
ΔF508-CFTR [4] = conditions: CF epithelial cells; cited from earlier work
ΔF508-CFTR [5] = conditions: cited from earlier work
IB3-1 cells = conditions: respiratory epithelial cells; 1-2 mM; cited from earlier work
[6] = system: ΔF508-homozygous pancreatic acinar cell line; conditions: cited from earlier work
ΔF508-CFTR [7] = conditions: up to 300 mM; cited from earlier work
ΔF508-CFTR [8] = biological target: T1, ΔF508-CFTR; conditions: 1 M or 10%; cited from earlier work
fetal hemoglobin = fetal hemoglobin levels in thalassemic patients; type: in vivo
Source text: Compositions administered in pulses have the surprising benefit of reducing the overall load of drug on the patient as the total amount of drug administered can be substantially less than that amount that has been therapeutically administered by conventional continuous therapy. Substantially means that there is more than an insignificant difference between the amount or concentration of a composition administered by pulsing according to the invention verses the amount or concentration administered using conventional therapy, without compromising the beneficial effect achieved to the patient. […] Typical pulsed amounts of arginine butyrate are from about 2 to about 20 g/kg/month, and preferably from about 3 to about 10 g/kg/month wherein the patient receives a total of less than about 20 kg per month, preferably less than about 15 kg per month and more preferably less than about 10 kg per month. […] Preferably, the therapeutically effective pulsed dose is less than the continuous dose, or less than one half, one third, one quarter, one fifth, one tenth or even one twentieth of the therapeutic continuous dose of the same composition or even less.

[9] = in vivo; cited from earlier work; remark: listed apart in the source

In the case of `O=C(O)CCCc1ccccc1` [4PBA, 4-phenylbutyrate], the forskolin-activated chloride secretion (ΔF508-CFTR [1]) is given as “restoration of forskolin-activated chloride secretion”, the “CFTR RNA levels” value (CFTR gene) is given as “no changes in CFTF RNA levels; also recorded: no increases in CFTR mRNA” and the clinical tolerability [2] is given as “not well tolerated”. The “protein kinase A-activated, linear, 10 pS chloride channels at the plasma membrane” value (ΔF508-CFTR [3]) was “appeared at the plasma membrane”, the “amount of ΔF508-CFTR by immunocytochemistry” value (ΔF508-CFTR [4]) was “consistent with increasing amounts of ΔF508-CFTR; also recorded: Increased CFTR immunoreactivity” and the “CFTR immunoreactivity in immunoblot experiments” value (ΔF508-CFTR [5]; 4PBA-treated samples) was “increased CFTR immunoreactivity”. The “higher molecular mass forms of CFTR (immunoblot)” value (ΔF508-CFTR [5]; IB3-1 cells, 0.1-1 mM) was “appearance of higher molecular mass forms of CFTR” and the “higher molecular mass forms of CFTR (immunoblot)” value (ΔF508-CFTR [5]; primary nasal epithelia, 5 mM) was “appearance of higher molecular mass forms of CFTR”.
For `CCCC(=O)O` [butyrate, butyric acid], the “cell health, growth rate and morphology” value (IB3-1 cells) is listed as “morphologic changes in IB3-1 cells, with rounding of cells and decreased growth rate”, the cAMP-responsive chloride secretion [6] is listed as “can induce cAMP-responsive chloride secretion” and the “cAMP-stimulation indicative of chloride ion transport” value (ΔF508-CFTR [7]) is listed as “no increases in cAMP-stimulation was observed”.
In the case of `OCC(O)CO` [glycerol], the “movement of ΔF508-CFTR from the ER to the plasma membrane” value (ΔF508-CFTR [8]) is given as “facilitate movement of ΔF508-CFTR from the ER to the plasma membrane”.
For arginine butyrate, the “effectiveness at continuous administration” value (fetal hemoglobin; about 2000 mg/kg patient weight, continuous) is given as “effective”, the “benefit measured by rise in fetal hemoglobin levels” value (fetal hemoglobin; about 400 to 1500 mg/kg in pulses, thalassemic patients) is given as “surprisingly more beneficial” and the half-life [9] is given as 15 min.
